Target: T1, Prostaglandin G/H synthase 1 (Ovis aries, UniProt P05979)
T1 sequence (P05979 whole entry): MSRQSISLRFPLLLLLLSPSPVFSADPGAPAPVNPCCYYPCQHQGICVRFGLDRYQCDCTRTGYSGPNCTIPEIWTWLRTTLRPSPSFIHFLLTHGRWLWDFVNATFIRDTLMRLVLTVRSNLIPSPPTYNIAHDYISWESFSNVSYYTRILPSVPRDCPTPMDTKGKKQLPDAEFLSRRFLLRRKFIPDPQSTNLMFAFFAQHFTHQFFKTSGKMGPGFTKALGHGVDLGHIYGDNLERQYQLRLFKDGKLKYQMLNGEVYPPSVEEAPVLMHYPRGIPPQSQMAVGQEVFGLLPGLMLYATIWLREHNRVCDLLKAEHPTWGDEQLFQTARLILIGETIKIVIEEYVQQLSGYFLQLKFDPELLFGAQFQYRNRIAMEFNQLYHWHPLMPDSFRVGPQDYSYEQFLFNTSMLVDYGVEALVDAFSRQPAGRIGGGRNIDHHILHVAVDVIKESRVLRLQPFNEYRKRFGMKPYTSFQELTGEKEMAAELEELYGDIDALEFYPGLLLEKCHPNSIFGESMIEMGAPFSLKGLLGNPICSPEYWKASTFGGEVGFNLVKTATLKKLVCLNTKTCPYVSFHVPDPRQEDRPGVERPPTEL
Experiment: Inhibition of ovine COX-1 by enzyme immuno assay

Q: Which IC50 does the source give for `Fc1ccc(/N=C/c2c[nH]c3ccccc23)cc1` here?
A: 68.4 µM

Q: `Cc1ccc(/N=C/c2c[nH]c3ccccc23)cc1` was tested. Which IC50 did it give?
A: 62.3 µM

Q: `FC(F)(F)c1ccc(/N=C/c2c[nH]c3ccccc23)cc1` was tested. Which IC50 did it give?
A: 78.2 µM

Q: How did the IC50 turn out when `Fc1ccc(/N=C/c2cn(Cc3ccccc3)c3ccccc23)cc1` was run?
A: 91.1 µM

Q: Which IC50 does the source give for `Cc1ccc(/N=C/c2cn(Cc3ccccc3)c3ccccc23)cc1` here?
A: 81.5 µM

Q: Which IC50 does the source give for `FC(F)(F)c1ccc(/N=C/c2cn(Cc3ccccc3)c3ccccc23)cc1` here?
A: 95.5 µM

Q: `O=C(c1ccccc1)n1cc(/C=N/c2ccc(F)cc2)c2ccccc21` was tested. Which IC50 did it give?
A: > 100 µM

Q: `Cc1ccc(/N=C/c2cn(C(=O)c3ccccc3)c3ccccc23)cc1` was tested. Which IC50 did it give?
A: 80.2 µM

Q: For `O=C(c1ccccc1)n1cc(/C=N/c2ccc(C(F)(F)F)cc2)c2ccccc21`, which IC50 is on record?
A: > 100 µM

Q: How did the IC50 turn out when `O=C(c1ccccc1)n1cc(/C=N/c2ccc(Cl)cc2)c2ccccc21` was run?
A: 86.1 µM

— ChEMBL document CHEMBL1955864, “N-1 and C-3 substituted indole Schiff bases as selective COX-2 inhibitors: synthesis and biological evaluation” (Bioorg Med Chem Lett, 2012)
